Experimental data as given in patent US20250215029A1 (Recludix Pharma, Inc., priority 2022, published 2025).
Like-named read-outs stand apart in the source and are kept apart here.

Key:
pY705-STAT3 in PBMC = molecular target: T1, pY705-STAT3 in PBMC (Homo sapiens, UniProt P40763); assay: MSD-pSTAT-PBMC Assay (pSTAT3, IL-6 stimulated); assay type: cell-based; conditions: compound 3 hrs, then 10 ng/mL IL-6 for 10 min
T1 construct: Cryopreserved Peripheral Blood Mononuclear Cells (PBMC) are from AllCells; host or cells: cryopreserved PBMC
T1 sequence (P40763 whole entry): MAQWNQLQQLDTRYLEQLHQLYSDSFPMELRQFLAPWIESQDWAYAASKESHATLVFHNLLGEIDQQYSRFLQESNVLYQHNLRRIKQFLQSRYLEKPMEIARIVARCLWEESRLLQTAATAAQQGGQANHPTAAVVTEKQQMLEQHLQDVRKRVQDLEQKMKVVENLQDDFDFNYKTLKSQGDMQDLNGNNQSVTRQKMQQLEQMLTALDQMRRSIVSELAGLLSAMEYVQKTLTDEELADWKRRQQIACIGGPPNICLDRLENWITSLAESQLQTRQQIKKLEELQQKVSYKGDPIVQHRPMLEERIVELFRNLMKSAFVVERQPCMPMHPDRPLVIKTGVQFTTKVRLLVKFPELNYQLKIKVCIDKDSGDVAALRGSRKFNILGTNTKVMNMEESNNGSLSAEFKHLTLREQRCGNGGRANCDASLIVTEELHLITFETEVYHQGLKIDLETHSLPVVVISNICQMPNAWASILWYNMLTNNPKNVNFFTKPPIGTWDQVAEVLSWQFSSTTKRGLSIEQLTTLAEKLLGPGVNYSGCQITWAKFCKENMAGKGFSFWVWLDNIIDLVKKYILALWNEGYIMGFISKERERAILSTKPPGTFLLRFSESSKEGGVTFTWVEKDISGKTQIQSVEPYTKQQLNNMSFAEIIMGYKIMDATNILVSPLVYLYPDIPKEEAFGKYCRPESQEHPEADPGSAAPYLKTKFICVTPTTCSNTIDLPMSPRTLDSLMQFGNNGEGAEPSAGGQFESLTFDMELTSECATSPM
Outline: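 Cells are preincubated with compound for 3 hrs, then stimulated for 10 min, IL-4 at 1 ng/mL driving STAT6 phosphorylation and IL-6 at 10 ng/mL driving STAT3. Phospho-STAT in lysates is quantified by MSD immunoassay, and IC50 is fitted after subtracting unstimulated wells.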

pY641-STAT6 in PBMC = molecular target: T2, pY641-STAT6 in PBMC (Homo sapiens, UniProt P42226); assay: MSD-pSTAT-PBMC Assay (pSTAT6, IL-4 stimulated); assay type: cell-based; conditions: compound 3 hrs, then 1 ng/mL IL-4 for 10 min
T2 construct: Cryopreserved Peripheral Blood Mononuclear Cells (PBMC) are from AllCells; host or cells: cryopreserved PBMC
T2 sequence (P42226 1-847): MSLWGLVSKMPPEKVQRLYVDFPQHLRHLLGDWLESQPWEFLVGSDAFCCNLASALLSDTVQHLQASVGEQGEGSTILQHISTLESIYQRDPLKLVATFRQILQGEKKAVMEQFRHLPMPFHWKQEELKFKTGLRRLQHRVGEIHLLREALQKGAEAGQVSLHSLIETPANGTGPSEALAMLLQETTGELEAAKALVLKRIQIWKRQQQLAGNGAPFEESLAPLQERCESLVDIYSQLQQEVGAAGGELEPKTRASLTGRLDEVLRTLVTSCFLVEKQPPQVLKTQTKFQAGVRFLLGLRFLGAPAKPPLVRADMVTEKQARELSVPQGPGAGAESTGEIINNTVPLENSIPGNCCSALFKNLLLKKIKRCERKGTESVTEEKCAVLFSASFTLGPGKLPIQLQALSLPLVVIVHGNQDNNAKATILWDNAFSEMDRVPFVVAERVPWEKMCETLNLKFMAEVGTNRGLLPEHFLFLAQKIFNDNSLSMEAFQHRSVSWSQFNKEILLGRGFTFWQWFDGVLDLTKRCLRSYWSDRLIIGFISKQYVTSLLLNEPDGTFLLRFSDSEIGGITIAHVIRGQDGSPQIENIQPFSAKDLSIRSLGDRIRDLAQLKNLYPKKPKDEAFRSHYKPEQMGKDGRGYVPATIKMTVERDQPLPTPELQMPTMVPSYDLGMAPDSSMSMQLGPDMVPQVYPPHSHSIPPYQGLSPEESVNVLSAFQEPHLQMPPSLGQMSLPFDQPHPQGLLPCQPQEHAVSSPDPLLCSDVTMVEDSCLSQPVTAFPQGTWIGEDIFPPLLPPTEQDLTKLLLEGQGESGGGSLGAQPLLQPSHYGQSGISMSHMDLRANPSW
Outline: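 MSD electrochemiluminescence read-out: total STAT captured, probed with anti-pY641-STAT6 or anti-pY705-STAT3. Human PBMC, 3 h compound pretreatment, 10 min stimulation (IL-4 1 ng/mL or IL-6 10 ng/mL). Unstimulated signal subtracted, DMSO-normalized, variable-slope IC50.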

[1] = PBMC, Table 1114, read-out: pSTAT3
[2] = PBMC, Table 1114, read-out: pSTAT6
[3] = PBMC, Table 115, read-out: STAT3
[4] = PBMC, Table 115, read-out: STAT6

IC50 (pY705-STAT3 in PBMC; [1]) | IC50 (pY641-STAT6 in PBMC; [2]) | SMILES | IC50 (pY705-STAT3 in PBMC; [3]) | IC50 (pY641-STAT6 in PBMC; STAT6, PBMC, Table 115) | also measured
< 100 nM | < 100 nM | CN(C)S(=O)(=O)N1CCN(C(=O)[C@@H]2CC[C@@H]3CCCC[C@H](NC(=O)c4cc5cc(C(F)(F)P(=O)(OCOC(=O)C(C)(C)C)OCOC(=O)C(C)(C)C)ccc5s4)C(=O)N32)CC1 [Compound 145, ((((2-(((3S,6S,10aS)-3-(4-(N,N-dimethylsulfamoyl)piperazine-1-carbonyl)-5-oxodecahydro-pyrrolo[1,2-a]azocin-6-yl)carbamoyl)benzo[b]thiophen-5-yl)difluoromethyl)phosphoryl)bis (oxy))bis (methylene) bis(2,2-dimethylpropanoate)] | – | – | –
– | – | CCCC(=O)SCCOP(=O)(OCCSC(=O)CCC)C(F)(F)c1ccc2sc(C(=O)N[C@H]3CCC[C@H]4CC[C@@H](C(=O)N5CC(c6ncccn6)C5)N4C3=O)cc2c1 [Compound 940, S,S′-((((difluoro(2-(((3S,6S,9aS)-5-oxo-3-(3-(pyrimidin-2-yl)azetidine-1-carbonyl)octahydro-1H-pyrrolo[1,2-a]azepin-6-yl)carbamoyl)benzo [b]thiophen-5-yl)methyl)phosphoryl)bis(oxy))bis(ethane-2,1-diyl)) dibutanethioate] | < 100 nM | – | IC50 (pY641-STAT6 in PBMC; [4]): 100 to 1000 nM
100 to 1000 nM | 1000 to 3000 nM | CC(C)(C)C(=O)OCOP(=O)(OCOC(=O)C(C)(C)C)C(F)(F)c1ccc2sc(C(=O)N[C@H]3CCCC[C@H]4CC[C@@H](C(=O)N5CCN(C(=O)c6cn[nH]c6)CC5)N4C3=O)cc2c1 [Compound 192, ((((2-(((3S,6S,10aS)-3-(4-(1H-pyrazole-4-carbonyl)piperazine-1-carbonyl)-5-oxodecahydro-pyrrolo[1,2-a]azocin-6-yl)carbamoyl)benzo[b]thiophen-5-yl)difluoro-methyl)phos-phoryl)bis(oxy)) bis(methylene) bis(2,2-dimethyl-propanoate)] | – | – | –
– | – | CCCOC(=O)[C@H](C)NP(=O)(Cc1ccc2ccc(C(=O)N[C@H]3CCCC[C@H]4CC[C@@H](C(=O)N5CC(c6ccccc6)CC56CC6)N4C3=O)cc2c1)Oc1ccccc1 (stereo partly drawn) [Compound 421, propyl (((7-(((3S,6S,10aS)-5-oxo-3-(6-phenyl-4-azaspiro[2.4]heptane-4-carbonyl)decahydropyrrolo[1,2-a]azocin-6-yl)carbamoyl)naphthalen-2-yl)methyl)(phenoxy)phosphoryl)-L-alaninate] | > 3000 nM | 100 to 1000 nM | –
100 to 1000 nM | < 100 nM | CCCC(=O)SCCOP(=O)(OCCSC(=O)CCC)C(F)(F)c1ccc2sc(C(=O)N[C@H]3CCCC[C@H]4CC[C@@H](C(=O)N(C)c5ccc6nnccc6c5)N4C3=O)cc2c1 [Compound 131, S,S′-(((((2-(((3S,6S,10aS)-3-(cinnolin-6-yl(methyl)carbamoyl)-5-oxodecahydro-pyrrolo[1,2-a]azocin-6-yl)carbamoyl)benzo[b]thiophen-5-yl)difluoromethyl)phosphoryl)bis (oxy))bis(ethane-2,1-diyl)) dibutanethioate] | – | – | –
100 to 1000 nM | 100 to 1000 nM | CC(C)CC(=O)SCCOP(=O)(OCCSC(=O)CC(C)C)C(F)(F)c1ccc2sc(C(=O)N[C@H]3CCCC[C@H]4CC[C@@H](C(=O)N5C[C@@H](C#N)[C@H](c6cc[nH]c(=O)c6)C5)N4C3=O)cc2c1 (single isomer, unassigned) [Compound 154, S,S′-(((((2-(((3S,6S,10aS)-3-((3S,4R or 3R,4S)-3-cyano-4-(2-oxo-1,2-dihydropyridin-4-yl)pyrrolidine-1-carbonyl)-5-oxodecahydro-pyrrolo[1,2-a]azocin-6-yl)carbamoyl)benzo [b]thiophen-5-yl)difluoromethyl)phosphoryl)bis (oxy))bis(ethane-2,1-diyl)) bis(3-methylbutane thioate)] | – | – | –
– | – | CCCOC(=O)[C@H](C)NP(=O)(Oc1ccccc1)[C@H](F)c1ccc2sc(C(=O)N[C@H]3CCC[C@H]4CC[C@@H](C(=O)N5C[C@H](c6ccccc6)[C@@H](C#N)C56CC6)N4C3=O)cc2c1 (stereo partly drawn) [Compound 388, propyl (((S)-(2-(((3S,6S,9aS)-3-((6S,7R)-7-cyano-6-phenyl-4-azaspiro[2.4]heptane-4-carbonyl)-5-oxooctahydro-1H-pyrrolo[1,2-a]azepin-6-yl)carbamoyl)benzo [b]thiophen-5-yl)fluoromethyl) (phenoxy)phosphoryl)-L-alaninate] | – | < 100 nM | IC50 (pY705-STAT3 in PBMC; STAT3, PBMC, Table 115): > 3000 nM
– | – | CCCOC(=O)[C@H](C)NP(=O)(Cc1ccc2sc(C(=O)N[C@H]3CCCC[C@H]4CC[C@@H](C(=O)NCc5cnc6[nH]cnc6c5)N4C3=O)cc2c1)Oc1ccccc1 (stereo partly drawn) [Compound 280, propyl (((2-(((3S,6S,10aS)-3-(((3H-imidazo[4,5-b]pyridin-6-yl)methyl)carbamoyl)-5-oxodecahydropyrrolo [1,2-a]azocin-6-yl)carbamoyl)benzo [b]thiophen-5-yl)methyl)(phenoxy)phosphoryl)-L-alaninate] | < 100 nM | > 3000 nM | –
– | – | CCCOC(=O)[C@H](C)NP(=O)(Oc1ccccc1)[C@H](F)c1ccc2sc(C(=O)N[C@H]3CCC[C@H]4CC[C@@H](C(=O)N5CC(c6cnccc6N(C)C)C5)N4C3=O)cc2c1 (single isomer, unassigned) [Compound 954] | < 100 nM | > 3000 nM | –
< 100 nM | 1000 to 3000 nM | CC(C)(C)C(=O)OCOP(=O)(OCOC(=O)C(C)(C)C)C(F)(F)c1ccc2sc(C(=O)N[C@H]3CCCC[C@H]4CCC[C@@H](C(=O)N5CC(C(=O)N6CCOCC6)C5)N4C3=O)cc2c1 [Compound 172, (((difluoro(2-(((4S,7S,11aS)-4-(3-(morpholine-4-carbonyl)azetidine-1-carbonyl)-6-oxodecahydro-2H-pyrido[1,2-a]azocin-7-yl)carbamoyl)benzo[b]thiophen-5-yl)methyl)phosphoryl)bis(oxy))bis(methylene) bis(2,2-dimethylpropanoate)] | – | – | –
– | – | COc1ccncc1C1CN(C(=O)[C@@H]2CC[C@@H]3CCC[C@H](NC(=O)c4cc5cc([C@@H](F)[P@](=O)(N[C@@H](C)C(=O)OCc6ccccc6)Oc6ccccc6)ccc5s4)C(=O)N32)C1 (single isomer, unassigned) [Compound 1055] | < 100 nM | > 3000 nM | –
< 100 nM | 100 to 1000 nM | CC(C)(C)C(=O)OCOP(=O)(OCOC(=O)C(C)(C)C)C(F)(F)c1ccc2sc(C(=O)N[C@H]3CCCC[C@H]4CC[C@@H](C(=O)N5CC6(CN(C(=O)Cc7ccccc7)C6)C5)N4C3=O)cc2c1 [Compound 191, (((difluoro(2-(((3S,6S,10aS)-5-oxo-3-(6-(2-phenylacetyl)-2,6-diazaspiro[3. 3]heptane-2-carbonyl)decahydro-pyrrolo [1,2-a]azocin-6-yl)carbamoyl)benzo[b]thiophen-5-yl)methyl)phosphoryl)bis (oxy))bis (methylene) bis(2,2-dimethyl-propanoate)] | – | – | –
– | – | CC(C)CC(=O)SCCOP(=O)(OCCSC(=O)CC(C)C)C(F)(F)c1ccc2ccc(C(=O)N[C@H]3CCCC[C@H]4CC[C@@H](C(=O)N5CC(c6ccccc6)CC56CC6)N4C3=O)cc2c1 (stereo partly drawn) [Compound 1101, S,S′-((((difluoro(7-(((3S,6S,10aS)-5-oxo-3-(6-phenyl-4-azaspiro[2.4]heptane-4-carbonyl)decahydropyrrolo[1,2-a]azocin-6-yl)carbamoyl)naphthalen-2-yl)methyl)phosphoryl)bis(oxy))bis(ethane-2,1-diyl)) bis(3-methylbutanethioate)] | > 3000 nM | – | IC50 (pY641-STAT6 in PBMC; [4]): < 100 nM

SMILES | IC50 (pY705-STAT3 in PBMC; [1]) | IC50 (pY641-STAT6 in PBMC; [2]) | IC50 (pY705-STAT3 in PBMC; [3]) | IC50 (pY641-STAT6 in PBMC; STAT6, PBMC, Table 115) | also measured
CC(C)OC(=O)[C@H](C)NP(=O)(Cc1ccc2sc(C(=O)N[C@H]3CCC[C@H]4CC[C@@H](C(=O)N5CC(c6cccnc6)C5)N4C3=O)cc2c1)Oc1ccccc1 (stereo partly drawn) [Compound 195, isopropyl (((2-(((3S,6S,9aS)-5-oxo-3-(3-(pyridin-3-yl)azetidine-1-carbonyl)octa-hydro-1H-pyrrolo[1,2-a]azepin-6-yl)carbamoyl)benzo[b]thiophen-5-yl)methyl) (phenoxy)phosphoryl)-L-alaninate] | 100 to 1000 nM | – | – | – | IC50 (pY641-STAT6 in PBMC; pSTAT6, PBMC, Table 1114): > 3000 nM
